The text below walks through data of US8772316B2, “Substituted 6,7-dialkoxy-3-isoquinolinol derivatives as inhibitors of phosphodiesterase 10 (PDE10A)” (Allergan, Inc., priority 2011, dated 2014).

SMILES strings stand for the structures. Where a name gives a salt, the structure may show the parent alone.

In assay [1] the target is PDE10A (Homo sapiens, UniProt Q9Y233). As to the kind of experiment: Phosphodiesterase assay (TR-FRET, LANCE cAMP kit). The class given is biochemical. As to conditions: PDE10A (BPS Bioscience) 200 pg/well, biotin-cAMP substrate, 60 min at room temperature. As for the experimental part:
(§1) The PDE assay is based on the homogenous time-resolved fluorescence resonance energy transfer (TR-FRET) technology (LANCE® from Perkin Elmer). […] When there is PDE activity, resulting in the degradation of the cyclic nucleotide, the complex is not formed and a decrease in signal is observed.
(§2) The phosphodiesterase assay was developed using the LANCE® cAMP kit (PerkinElmer). The assay buffer contained HBSS with 5 mM HEPES, 0.1% BSA, and 1.5 mM MgCl2, pH 7.4. PDE10A (BPS Bioscience) was used at 200 pg/well (with a specific activity of 3200 pmole/min/μg with assay conditions: 10 mM Tris-HCl, pH7.4, 10 mM MgCl2, 1 mM MnCl2, 200 μM cAMP, 2.5 kU 5′ nucleotidase, 37° C., 20 min). […] Chemical compounds were dissolved in DMSO (final concentration 2% (v/v)).
(§3) In a 384-well plate, 2 μL inhibitor and 3 μL PDE were added to the well, followed by the addition of 5 μl substrate biotinylated cAMP (1:5). After 60 min incubation at room temperature, 10 μL of assay detection mixture was added to the assay plate. After 1 h at room temperature, the signal was measured on EnVision™ (Perkin Elmer).

In assay [2] the target is PDE10A. The assay is described as follows: Phosphodiesterase assay (TR-FRET, LANCE cAMP kit). Type of assay: biochemical. As to conditions: PDE10A (BPS Bioscience) 200 pg/well, biotin-cAMP substrate, 60 min at room temperature. Here is the method:
as §1, §2, §3

The term IC50 denotes the concentration that inhibits the measured activity by half. A low value points to higher potency.

Chain of PDE10A (Homo sapiens, UniProt Q9Y233) (Q9Y233 whole entry, looked up): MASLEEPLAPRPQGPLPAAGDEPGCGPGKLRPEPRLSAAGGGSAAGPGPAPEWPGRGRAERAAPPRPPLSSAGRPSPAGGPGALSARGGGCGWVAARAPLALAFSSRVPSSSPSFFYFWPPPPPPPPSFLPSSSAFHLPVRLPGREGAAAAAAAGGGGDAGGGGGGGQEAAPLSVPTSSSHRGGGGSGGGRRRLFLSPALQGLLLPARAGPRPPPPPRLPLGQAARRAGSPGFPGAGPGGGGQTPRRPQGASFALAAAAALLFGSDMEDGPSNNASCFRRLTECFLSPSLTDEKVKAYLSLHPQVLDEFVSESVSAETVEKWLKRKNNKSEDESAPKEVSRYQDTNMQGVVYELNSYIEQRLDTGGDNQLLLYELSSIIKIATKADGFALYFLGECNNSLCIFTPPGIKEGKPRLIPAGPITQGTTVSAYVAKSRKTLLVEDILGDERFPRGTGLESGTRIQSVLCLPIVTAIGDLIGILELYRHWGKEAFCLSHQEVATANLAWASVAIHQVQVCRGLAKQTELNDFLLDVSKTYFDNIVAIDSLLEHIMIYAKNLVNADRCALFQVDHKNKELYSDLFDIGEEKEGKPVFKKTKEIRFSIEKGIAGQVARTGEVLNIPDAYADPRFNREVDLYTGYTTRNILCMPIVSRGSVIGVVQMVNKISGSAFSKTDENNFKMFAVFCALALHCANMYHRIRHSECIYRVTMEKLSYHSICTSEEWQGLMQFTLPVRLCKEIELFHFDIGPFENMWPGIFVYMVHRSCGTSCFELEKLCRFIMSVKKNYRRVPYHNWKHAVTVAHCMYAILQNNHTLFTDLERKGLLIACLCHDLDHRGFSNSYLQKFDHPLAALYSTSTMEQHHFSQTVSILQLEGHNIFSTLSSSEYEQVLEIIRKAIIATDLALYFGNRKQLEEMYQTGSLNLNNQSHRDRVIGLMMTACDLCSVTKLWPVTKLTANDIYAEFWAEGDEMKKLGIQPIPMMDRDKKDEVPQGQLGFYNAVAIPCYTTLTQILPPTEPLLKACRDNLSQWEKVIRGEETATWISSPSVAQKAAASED

On PDE10A [1], `COc1cc2c(C)nc(O)c(Cc3cccc(Oc4ccccc4)c3)c2cc1OC` [Compound 4, 6,7-dimethoxy-1-methyl-4-(3-phenoxybenzyl)isoquinolin-3-ol hydrochloride] displayed an IC50 of 140 nM.

In turn, `COc1cc2c(C)nc(O)c(Cc3ccncc3)c2cc1OC` [Compound 11, 6,7-dimethoxy-1-methyl-4-(pyridin-4-ylmethyl)isoquinolin-3-ol hydrochloride] returned an IC50 on PDE10A [1] of 223 nM.

`COc1ccc(-c2cccc(Cc3c(O)nc(C)c4cc(OC)c(OC)cc34)n2)cc1` [Compound 13, 6,7-dimethoxy-4-((6-(4-methoxyphenyl)pyridin-2-yl)methyl)-1-methylisoquinolin-3-ol dihydrochloride] yielded an IC50 against PDE10A [1] of 50 nM.

On PDE10A [1], `COc1cc2c(C)nc(O)c(Cc3cncc(-c4ccccc4)c3)c2cc1OC` [Compound 15, 6,7-Dimethoxy-1-methyl-4-((5-phenylpyridin-3-yl)methyl)isoquinolin-3-ol dihydrochloride] showed an IC50 of 97 nM.

At PDE10A [1], `CCc1nc(O)c(Cc2ccc3ccccc3c2)c2cc(OC)c(OC)cc12` [Compound 19, 1-ethyl-6,7-dimethoxy-4-(naphthalen-2-ylmethyl)isoquinolin-3-ol hydrochloride] yielded an IC50 of 11 nM.

`COc1cc2c(C)nc(O)c(Cc3ccc4cnccc4c3)c2cc1OC` [Compound 21, 4-(Isoquinolin-6-ylmethyl)-6,7-dimethoxy-1-methylisoquinolin-3-ol dihydrochloride] yielded an IC50 against PDE10A [1] of 333 nM.

On to `COc1cc2c(C)nc(O)c(Cc3cccc4cnccc34)c2cc1OC` [Compound 22, 4-(Isoquinolin-5-ylmethyl)-6,7-dimethoxy-1-methylisoquinolin-3-ol dihydrochloride], for which, at PDE10A [1], half-maximal inhibition (IC50) required 333 nM.

On to `COc1cc2c(C)nc(O)c(Cc3ccnc4ccccc34)c2cc1OC` [Compound 25, 6,7-Dimethoxy-1-methyl-4-(quinolin-4-ylmethyl)isoquinolin-3-ol dihydrochloride], for which, at PDE10A [1], 265 nM corresponded to half-maximal inhibition (IC50). The IC50 values of the last two compounds are within 1.5-fold of each other.

For the compound `COc1ccc2cc(Cc3c(O)nc(C)c4cc(OC)c(OC)cc34)cnc2c1` [Compound 29, 6,7-Dimethoxy-4-((7-methoxyquinolin-3-yl)methyl)-1-methylisoquinolin-3-ol dihydrochloride], the IC50 at PDE10A [1] is 29 nM. This IC50 is about 9.1-fold lower than that of the compound before.

At PDE10A [1], `CCOc1ccc2cc(Cc3c(O)nc(C)c4cc(OC)c(OC)cc34)cnc2c1` [Compound 30, 4-((7-ethoxyquinolin-3-yl)methyl)-6,7-dimethoxy-1-methylisoquinolin-3-ol dihydrochloride] returned an IC50 of 21 nM.

`CCCc1nc(O)c(Cc2cc3cc(C)ccc3nc2NCC)c2cc(OC)c(OC)cc12` [Compound 35, 4-((2-(Ethylamino)-6-methylquinolin-3-yl)methyl)-6,7-dimethoxy-1-propylisoquinolin-3-ol dihydrochloride]: the IC50 at PDE10A [1] was 1.5 nM.

Turning to `CCCc1nc(O)c(Cc2cc3cc4c(cc3nc2NC)OCO4)c2cc(OC)c(OC)cc12` [Compound 62, 6,7-dimethoxy-4-((6-(methylamino)-[1,3]-dioxolo[4,5-g]quinolin-7-yl)methyl)-1-propylisoquinolin-3-ol dihydrochloride], on PDE10A [2], the IC50 was determined as 1.1 nM.

In turn, `CCCc1nc(O)c(Cc2cc3cc4c(cc3nc2N(C)C)OCO4)c2cc(OC)c(OC)cc12` [Compound 63, 4-((6-(dimethylamino)-[1,3]dioxolo[4,5-g]quinolin-7-yl)methyl)-6,7-dimethoxy-1-propylisoquinolin-3-ol dihydrochloride] came in with an IC50 on PDE10A [2] of 560 nM.

For `CCCc1nc(N)c(Cc2ccc3oc4ccccc4c3c2)c2cc(OC)c(OC)cc12` [Compound 65, 4-(dibenzo[b,d]furan-2-ylmethyl)-6,7-dimethoxy-1-propylisoquinolin-3-amine hydrochloride], half-maximal inhibition against PDE10A [2] (IC50) was put at 967 nM. Compared with the last compound, the IC50 is about 1.7-fold higher.

`CCCc1nc(O)c(Cc2cc3cc(OC)ccc3nc2CC)c2cc(OC)c(OC)cc12` [Compound 66, 4-((2-ethyl-6-methoxyquinolin-3-yl)methyl)-6,7-dimethoxy-1-propylisoquinolin-3-ol dihydrochloride] showed an IC50 at PDE10A [2] of 16 nM.

Regarding `CCNc1nc2ccc(OC)cc2cc1Cc1c(O)nc(COC)c2cc(OC)c(OC)cc12` [Compound 67, 4-((2-(ethylamino)-6-methoxyquinolin-3-yl)methyl)-6,7-dimethoxy-1-(methoxymethyl)isoquinolin-3-ol dihydrochloride], the IC50 against PDE10A [2] was determined as 1.8 nM. Compared with the last compound, the IC50 is about 8.9-fold lower.

`CCc1nc(O)c(Cc2cc3cc(OC)ccc3nc2N=[N+]=[N-])c2cc(OC)c(OC)cc12` [Compound 68, 4-((2-Azido-6-methoxyquinolin-3-yl)methyl)-1-ethyl-6,7-dimethoxyisoquinolin-3-ol dihydrochloride] registered an IC50 against PDE10A [2] of 200 nM.

Turning to `CCc1nc(O)c(Cc2cc3cc(OC)ccc3nc2NCCNC(C)=O)c2cc(OC)c(OC)cc12` [Compound 69, N-(2-(3-((1-Ethyl-3-hydroxy-6,7-dimethoxyisoquinolin-4-yl)methyl)-6-methoxyquinolin-2-ylamino)ethyl)acetamide dihydrochloride], inhibition at PDE10A [2] was half-maximal at 1.5 nM (IC50).

The compound `CCCc1nc(O)c(Cc2cc3cc(OC)c(F)cc3nc2NCC)c2cc(OC)c(OC)cc12` [Compound 70, 4-((2-(Ethylamino)-7-fluoro-6-methoxyquinolin-3-yl)methyl)-6,7-dimethoxy-1-propylisoquinolin-3-ol dihydrochloride] registered a 50% inhibitory concentration (IC50) at PDE10A [2] of 2.4 nM. Compared with the last compound, the IC50 is about 1.6-fold higher.

Consider `CCCCc1nc2ccc(OC)cc2cc1Cc1c(O)nc(CCC)c2cc(OC)c(OC)cc12` [Compound 71, 4-((2-Butyl-6-methoxyquinolin-3-yl)methyl)-6,7-dimethoxy-1-propylisoquinolin-3-ol dihydrochloride], for which, on PDE10A [2], the IC50 came out at 93 nM.

Regarding `CCCc1nc(O)c(Cc2cc3cc(OC)ccc3nc2C(F)(F)F)c2cc(OC)c(OC)cc12` [Compound 72, 6,7-Dimethoxy-4-((6-methoxy-2-(trifluoromethyl)quinolin-3-yl)methyl)-1-propylisoquinolin-3-ol hydrochloride], at PDE10A [2], the IC50 was found to be 445 nM.

As to `COc1ccc2nc(NCCNC(C)=O)c(Cc3c(O)nc(C)c4cc(OC)c(OC)cc34)cc2c1` [Compound 73, N-(2-(3-((3-hydroxy-6,7-dimethoxy-1-methylisoquinolin-4-yl)methyl)-6-methoxyquinolin-2-ylamino)ethyl)acetamide dihydrochloride], at PDE10A [2], the IC50 was 2.7 nM. Against the preceding compound, the IC50 is about 160-fold lower.

Compound `CCCc1nc(O)c(Cc2cnc3ccccc3c2)c2cc(OC)c(OC)cc12` [Compound 74, 6,7-dimethoxy-1-propyl-4-(quinolin-3-ylmethyl)isoquinolin-3-ol hydrochloride] displayed an IC50 on PDE10A [2] of 6.1 nM.

With `CCNc1nc2ccc(OC)cc2cc1C(=O)c1c(O)nc(C)c2cc(OC)c(OC)cc12` [Compound 75, (2-(ethylamino)-6-methoxyquinolin-3-yl)(3-hydroxy-6,7-dimethoxy-1-methylisoquinolin-4-yl)methanone dihydrochloride], on PDE10A [2], the IC50 was > 1000 nM.

On to `CCCc1nc(O)c(Cc2cc3cc(OC)ccc3nc2NCCOC)c2cc(OC)c(OC)cc12` [Compound 76, 6,7-dimethoxy-4-((6-methoxy-2-(2-methoxyethylamino)quinolin-3-yl)methyl)-1-propylisoquinolin-3-ol dihydrochloride], for which, on PDE10A [2], the midpoint of inhibition, the IC50, lay at 2.3 nM.

Take `CCc1nc(O)c(Cc2cnc3ccccc3c2)c2cc(OC)c(OC)cc12` [Compound 78, 1-ethyl-6,7-dimethoxy-4-(quinolin-3-ylmethyl)isoquinolin-3-ol dihydrochloride]: on PDE10A [2], the IC50 is 27 nM.

On to `CCc1nc(O)c(Cc2ccc3nc(C)ccc3c2)c2cc(OC)c(OC)cc12` [Compound 81, 1-Ethyl-6,7-dimethoxy-4-((2-methylquinolin-6-yl)methyl)isoquinolin-3-ol dihydrochloride], for which 7.5 nM corresponded to half-maximal inhibition at PDE10A [2] (IC50).

`CCNc1nc2cc(F)c(OC)cc2cc1Cc1c(O)nc(CC)c2cc(OC)c(OC)cc12` [Compound 82, 1-Ethyl-4-((2-(ethylamino)-7-fluoro-6-methoxyquinolin-3-yl)methyl)-6,7-dimethoxyisoquinolin-3-ol dihydrochloride] displayed a half-inhibitory concentration (IC50) against PDE10A [2] of 1.4 nM. This IC50 is about 5.4-fold lower than that of the compound before.

At PDE10A [2], `CCCc1nc(O)c(Cc2cc3cc(OCC4CC4)ccc3nc2NCCNC(C)=O)c2cc(OC)c(OC)cc12` [Compound 83, N-(2-(6-(cyclopropylmethoxy)-3-((3-hydroxy-6,7-dimethoxy-1-propylisoquinolin-4-yl)methyl)quinolin-2-ylamino)ethyl)acetamide dihydrochloride] yielded an IC50 of 10 nM. Against the preceding compound, the IC50 is about 7.1-fold higher.

As to `CCCc1nc(O)c(Cc2cnc3ccc(OC)cc3c2)c2cc(OC)c(OC)cc12` [Compound 84, 6,7-Dimethoxy-4-((6-methoxyquinolin-3-yl)methyl)-1-propylisoquinolin-3-ol dihydrochloride], the IC50 against PDE10A [2] stood at 1.6 nM. Against the preceding compound, the IC50 is about 6.2-fold lower.

Turning to `CCc1nc(O)c(Cc2cnc3ccc(OC)cc3c2)c2cc(OC)c(OC)cc12` [Compound 85, 1-ethyl-6,7-dimethoxy-4-((6-methoxyquinolin-3-yl)methyl)isoquinolin-3-ol dihydrochloride], on PDE10A [2], the midpoint of inhibition, the IC50, lay at 0.4 nM.

`CCc1nc(O)c(Cc2cc3cc(OCC4CC4)ccc3nc2NCCNC(C)=O)c2cc(OC)c(OC)cc12` [Compound 87, N-(2-((6-(cyclopropylmethoxy)-3-((1-ethyl-3-hydroxy-6,7-dimethoxyisoquinolin-4-yl)methyl)quinolin-2-yl)amino)ethyl)acetamide dihydrochloride] showed an IC50 against PDE10A [2] of 3.9 nM. Against the preceding compound, the IC50 is about 9.8-fold higher.
